In US20030040531A1, “Remedies for reperfusion injury containing integrin alphanubeta 3 antagonist” (priority 2000, published 2003):

Key:
platelet aggregation [1] = experiment: inhibition of platelet aggregation, dog; assay type: cell-based; conditions: Canis lupus familiaris, read-out: concentration (IC50) necessary for inhibition of platelet aggregation
[2] = tested on: dog vascular smooth muscle cells; experiment: adhesion of dog vascular smooth muscle cells to bovine vitronectin; assay type: cell-based; conditions: Canis lupus familiaris, read-out: concentration (IC50) necessary for inhibition of adhesion to vitronectin
Experimental: (§1) The adhesion of vascular smooth muscle cells to immobilized human vitronectin was measured in accordance with the method of Liaw et al. (L. Liaw et al., Circ. Res., 74, 214 (1994)). A Dulbecco's phosphate buffer (Dulbecco's PBS(−)) solution of human serum-derived vitronectin adjusted to a concentration of 4 μg/ml was first added to wells (50 μl/well) of a microplate (Maxisorp), and a reaction for immobilization was allowed to proceed at 4° C. overnight. After washing twice with 150 μl of Dulbecco's PBS (−), Dulbecco's PBS (−) containing 10 mg/ml of bovine serum albumin was added, followed by blocking at 37° C. for one hr. The microplate was then washed twice with 150 μl of Dulbecco's PBS (−) to prepare an assay plate.
(§2) Next, 50 μl of a Dulbecco's modified Eagle's basal medium containing 20 mg/ml of bovine serum albumin with a medicament added thereto was added to the wells of the human vitronectin-coated assay microplate, followed by pre-cultivation under 5% carbon dioxide at 37° C. for 10 min. Thereafter, 50 μl of the Dulbecco's modified Eagle's basal medium with human vascular smooth muscle cells suspended therein was added thereto, and the plate was thoroughly stirred. A reaction was allowed to proceed under 5% carbon dioxide at 37° C. for 90 min. The reaction solution containing non-adherent cells was then removed, followed by washing three times with Dulbecco's PBS (−). For the adhered cells, 100 μl of Dulbecco's PBS (−) containing 4% paraformaldehyde was added, and immobilization was allowed to proceed at room temperature for 10 min. Next, 100 μl of a Dulbecco's PBS (−) containing 0.5% Toluidine Blue and 4% paraformaldehyde was added, and staining was allowed to proceed at room temperature for 5 min, followed by thorough washing with distilled water. The inside of the wells was then air-dried, and 1% aqueous sodium dodecylsulfate solution was then added to perform cytolysis. The absorbance of the microplate thus obtained was measured at 595 nm. […] The inhibition was calculated by the following equation. IC50 was determined from a primary regression line of the logarithm of each concentration of the test compound and the logarithm of (100−inhibition)/inhibition. [formula]
(§3) Rat vascular smooth muscle cells were cultivated in a medium composed of a mixture of equal amounts of 15% fetal calf serum-containing 199 medium and RPMI 1640 medium. Separately, hamster and dog vascular smooth muscle cells were cultivated in a 10% fetal calf serum-containing Dulbecco's modified Eagle's basal medium. These cultivated cells were then suspended in a Dulbecco's modified Eagle's basal medium to concentrations of 3×10^5 cells/ml (rat), 3×10^5 cells/ml (hamster), and 4×10^5 cells /ml (dog), respectively. Rat vitronectin was used in the adhesion system of rats and hamsters, while bovine vitronectin was used in the adhesion system of dogs.

[3] = tested on: rat vascular smooth muscle cells; experiment: adhesion of rat vascular smooth muscle cells to rat vitronectin; assay type: cell-based; conditions: read-out: concentration (IC50) necessary for inhibition of adhesion to vitronectin
Experimental: as §1, §2, §3

[4] = tested on: rat acute myocardial ischemia-reperfusion model; experiment: rat acute myocardial ischemia-reperfusion model; assay type: in vivo; conditions: for myocardial infarct size (proportion of the infarct area in the left ventricle): average value±SE; for influence on the blood pressure and the heart rate: doses at which the infarct inhibition action could be obtained
Experimental: Male Wistar rats (330 to 420 g) were subjected to controlled respiration using an artificial respirator under pentobarbital anesthesia (60 mg/kg, i.p.), and the blood pressure and the heart rate were measured through a blood pressure amplifier and a heart rate unit. Further, for the ischemia of the myocardium, an increase in voltage of R-wave in the II leading in an electrocardiogram was confirmed with a monitor through a bioelectricity amplifier. The rats underwent thoracotomy, and the coronary artery, together with the myocardium, was then occluded using a suture with a needle. Ischemia for 3 min and reperfusion for 5 min were followed by ischemia for 45 min and reperfusion for 45 min. Medicaments tested and concentrations thereof were 3 mg/kg+3 mg/kg/hr (bolus +infusion) (L; low dose group) and 6 mg/kg+3 mg/kg/hr (bolus +infusion) (H; high dose group) for the compound represented by formula (V); 3 mg/kg+3 mg/kg/hr (bolus +infusion) for the compound represented by formula (VI); 3 mg/kg+3 mg/kg/hr (bolus +infusion) (L; low dose group) and 6 mg/kg+3 mg/kg/hr (bolus +infusion) (H; high dose group) for the compound represented by formula (IV); 5 mg/kg+5 mg/kg/hr(bolus +infusion)(L; low dose group) and 10 mg/kg+10 mg/kg/hr (bolus +infusion) (H; high dose group) for the compound represented by formula (VII); and 1 mg/kg+1 mg/kg/hr (bolus+infusion) (L; low dose group) and 6 mg/kg+6 mg/kg/hr (bolus+infusion) (H; high dose group) for the compound represented by formula (VIII). For a control group (group C), a 10% (v/v) dimethyl sulfoxide/5% glucose solution was administered, and each medicament was dissolved in the same solvent. The dose volume was 3 ml/kg+3 ml/kg/h (bolus+infusion). The medicament was continuously administered through an infusion pump for the period starting with one min before the ischemia and ending with the completion of the experiment. After reperfusion for 45 min, the rats were slaughtered by excessive administration of pentobarbital, and the heart was removed. After perfusion with a Ringer solution, perfusion staining was carried out with 1.5% triphenyltetrazolium chloride, and the proportion of the infarct area in the left ventricle was quantitatively determined. For animals used in the experiment, each group consisted of 5 rats.

integrin αvβ3 = integrin αvβ3 (Homo sapiens, UniProt P05106+P06756); experiment: integrin αvβ3 binding assay (Pharmacological Example 1 in WO 99/38849)
Sequence of integrin αvβ3 (P06756 31-1048): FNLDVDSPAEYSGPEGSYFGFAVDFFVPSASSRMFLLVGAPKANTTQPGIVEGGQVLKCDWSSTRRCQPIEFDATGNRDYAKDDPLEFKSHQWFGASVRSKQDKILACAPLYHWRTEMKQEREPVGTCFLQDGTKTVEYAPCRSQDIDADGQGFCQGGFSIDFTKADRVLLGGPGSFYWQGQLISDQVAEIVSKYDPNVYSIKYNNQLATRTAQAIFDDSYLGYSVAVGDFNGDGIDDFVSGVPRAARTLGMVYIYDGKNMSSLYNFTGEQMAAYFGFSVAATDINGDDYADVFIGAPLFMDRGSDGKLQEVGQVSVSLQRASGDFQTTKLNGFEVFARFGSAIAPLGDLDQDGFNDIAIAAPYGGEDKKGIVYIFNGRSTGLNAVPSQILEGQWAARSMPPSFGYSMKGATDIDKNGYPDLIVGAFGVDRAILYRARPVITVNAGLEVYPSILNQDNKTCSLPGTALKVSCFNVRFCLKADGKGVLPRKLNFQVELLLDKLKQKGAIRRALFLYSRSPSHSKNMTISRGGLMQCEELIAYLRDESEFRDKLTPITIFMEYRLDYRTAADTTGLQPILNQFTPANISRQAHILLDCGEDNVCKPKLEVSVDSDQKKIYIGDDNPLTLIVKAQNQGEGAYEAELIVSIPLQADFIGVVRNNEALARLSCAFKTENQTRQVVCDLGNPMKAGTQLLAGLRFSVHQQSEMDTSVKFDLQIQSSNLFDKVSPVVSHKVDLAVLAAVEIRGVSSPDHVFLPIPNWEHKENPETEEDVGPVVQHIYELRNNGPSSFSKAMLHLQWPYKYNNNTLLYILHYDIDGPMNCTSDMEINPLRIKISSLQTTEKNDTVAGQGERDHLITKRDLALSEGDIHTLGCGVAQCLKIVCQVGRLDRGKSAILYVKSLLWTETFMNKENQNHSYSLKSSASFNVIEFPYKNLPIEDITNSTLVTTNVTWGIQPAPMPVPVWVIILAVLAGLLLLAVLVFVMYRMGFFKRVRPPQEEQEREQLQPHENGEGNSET
Sequence of integrin αvβ3 (P05106 27-788): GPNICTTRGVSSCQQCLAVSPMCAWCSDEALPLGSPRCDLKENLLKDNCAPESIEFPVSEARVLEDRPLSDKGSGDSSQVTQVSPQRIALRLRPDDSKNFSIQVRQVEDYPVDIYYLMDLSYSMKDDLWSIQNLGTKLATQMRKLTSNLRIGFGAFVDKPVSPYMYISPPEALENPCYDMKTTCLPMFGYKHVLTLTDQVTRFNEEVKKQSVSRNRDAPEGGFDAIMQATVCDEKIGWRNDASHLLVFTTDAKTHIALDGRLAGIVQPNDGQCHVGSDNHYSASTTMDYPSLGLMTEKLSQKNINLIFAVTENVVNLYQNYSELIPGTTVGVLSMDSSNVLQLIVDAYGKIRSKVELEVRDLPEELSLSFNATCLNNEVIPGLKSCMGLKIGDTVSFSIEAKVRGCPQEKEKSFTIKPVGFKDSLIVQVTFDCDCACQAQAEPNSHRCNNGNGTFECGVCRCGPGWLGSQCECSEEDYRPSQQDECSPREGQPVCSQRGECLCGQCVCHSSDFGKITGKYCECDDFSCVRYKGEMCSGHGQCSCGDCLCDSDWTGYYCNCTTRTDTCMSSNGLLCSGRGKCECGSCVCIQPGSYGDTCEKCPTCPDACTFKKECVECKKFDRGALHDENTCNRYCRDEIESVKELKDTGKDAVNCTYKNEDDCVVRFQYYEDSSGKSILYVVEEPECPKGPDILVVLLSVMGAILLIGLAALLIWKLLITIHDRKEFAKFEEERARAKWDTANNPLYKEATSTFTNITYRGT
Source text: Whether or not a compound has integrin αvβ3 antagonistic activity may be determined by assaying the antagonistic action by integrin αvβ3 binding assay as described, for example, in Pharmacological Test Example 1 in WO 99/38849.

platelet aggregation [5] = experiment: inhibition of platelet aggregation, human; assay type: cell-based; conditions: read-out: concentration (IC50) necessary for inhibition of platelet aggregation
[6] = tested on: human vascular smooth muscle cells; experiment: adhesion of human vascular smooth muscle cells to immobilized human vitronectin; assay type: cell-based; conditions: read-out: concentration (IC50) necessary for inhibition of adhesion to vitronectin
Experimental: as §1
Separately, human vascular smooth muscle cells cultivated at 37° C. under 5% carbon dioxide in a medium for vascular smooth muscle cells were separated using a Dulbecco's PBS (−) containing trypsin-EDTA, were washed with Dulbecco's PBS (−), and were then suspended in a Dulbecco's modified Eagle's basal medium to a concentration of 2×10^5/ml.
as §2

platelet aggregation [7] = experiment: inhibition of platelet aggregation, rat; assay type: cell-based; conditions: read-out: concentration (IC50) necessary for inhibition of platelet aggregation
[8] = 3 mg/kg+3 mg/kg/hr (bolus+infusion)
[9] = 3 mg/kg+3 mg/kg/hr (bolus+infusion), n=5

Compound | IC50 (platelet aggregation [1]) [nM] | IC50 [2] [nM] | IC50 [3] [nM] | reduction of myocardial infarct size as compared with group C ([4]; 1 mg/kg+1 mg/kg/hr (bolus+infusion), group L) [%] | myocardial infarct size (proportion of the infarct area in the left ventricle) ([4]; 1 mg/kg+1 mg/kg/hr (bolus+infusion), group L, n=5, group C 36.0±1.9%) [%] | reduction of myocardial infarct size as compared with group C ([4]; 6 mg/kg+6 mg/kg/hr (bolus+infusion), group H) [%] | myocardial infarct size (proportion of the infarct area in the left ventricle) ([4]; 6 mg/kg+6 mg/kg/hr (bolus+infusion), group H, n=5, group C 36.0±1.9%) [%] | influence on the blood pressure and the heart rate [4] | IC50 (integrin αvβ3) [nM] | IC50 (platelet aggregation [5]) [nM] | IC50 [6] [nM] | reduction of myocardial infarct size as compared with group C [4, 8] [%] | myocardial infarct size (proportion of the infarct area in the left ventricle) [4, 9] [%] | IC50 (platelet aggregation [7]) [nM] | reduction of myocardial infarct size as compared with group C ([4]; 5 mg/kg+5 mg/kg/hr (bolus+infusion), group L) [%] | myocardial infarct size (proportion of the infarct area in the left ventricle) ([4]; 5 mg/kg+5 mg/kg/hr (bolus+infusion), group L, n=5, group C 38.8±[…]) [%] | reduction of myocardial infarct size as compared with group C ([4]; 10 mg/kg+10 mg/kg/hr (bolus+infusion), group H) [%] | myocardial infarct size (proportion of the infarct area in the left ventricle) ([4]; 10 mg/kg+10 mg/kg/hr (bolus+infusion), group H, n=5, group C 38.8±[…]) [%] | reduction of myocardial infarct size as compared with group C ([4]; 6 mg/kg+3 mg/kg/hr (bolus+infusion), group H) [%] | myocardial infarct size (proportion of the infarct area in the left ventricle) ([4]; 6 mg/kg+3 mg/kg/hr (bolus+infusion), group H, n=5) [%]
COc1cc(C(=O)NCC(NS(=O)(=O)c2ccccc2)C(=O)O)ccc1N1CCC(NC2=NCCCN2)CC1 (stereo in doubt) [formula (VIII), (2S)-Benzenesulfonylamino-3-[3-methoxy-4-{4-(1,4,5,6-tetrahydropyrimidin-2-ylamino)-piperidin-1-yl}benzoylamino]propionic Acid] | 56 | 28 | 760 | 24.2 | 27.3±5.2 | 32.5 | 24.3±3.8 | no influence | 0.14 | 130 | 130 |  |  |  |  |  |  |  |  | 
O=C(NCC(NS(=O)(=O)c1ccccc1)C(=O)O)c1ccc(OCCNC2=NCCCN2)cc1 (stereo in doubt) [formula (VI), 4-[2-(3,4,5,6-Tetrahydropyrimidin-2-ylamino)ethyloxy]benzoyl-2(S)-phenylsulfonylamino-β-alanine] |  |  | 450 |  |  |  |  | no influence | 0.39 | 180 | 72 | 34.8 | 30.3±6.1 | > 100000 |  |  |  |  |  | 
O=C(NC[C@H](NS(=O)(=O)c1ccc(O)cc1)C(=O)O)c1ccc(N2CCC(NC3=NCCCN3)CC2)c(F)c1 [formula (VII), 3-[3-Fluoro-4-{4-(1,4,5,6-tetrahydropyrimidin-2-ylamino)piperidin-1-yl}benzoylamino]-(2S)-{(4-hydroxybenzenesulfonyl)amino}propionic Acid] | 190 | 18 | 640 |  |  |  |  | no influence | 0.066 | 230 | 69 |  |  | > 100000 | 24.5 | 29.3±1.7 | 41.5 | 22.7±3.8 |  | 
O=C(NC[C@@H](NS(=O)(=O)c1ccccc1)C(=O)O)c1ccc(N2CCCC(NC3=NCCCN3)C2)cc1F (stereo partly drawn) [formula (X), (2S)-Benzenesulfonylamino-3-[2-fluoro-4-{(3S)-(1,4,5,6-tetrahydropyrimidin-2-ylamino)-piperidin-1-yl}benzoylamino]propionic Acid] | 110 | 9.7 | 96 |  |  |  |  |  | 0.16 | 410 | 13 |  |  |  |  |  |  |  |  | 
O=C(NC[C@@H](NS(=O)(=O)c1cccs1)C(=O)O)c1ccc(N2CCCC(NC3=NCCCN3)C2)cc1 (stereo partly drawn) [formula (XI), 3-[4-{(3S)-(1,4,5,6-Tetrahydropyrimidin-2-ylamino)piperidin-1-yl}benzoylamino]-(2S)-{(thiophene-2-sulfonyl)amino}propionic Acid] |  |  |  |  |  |  |  |  | 0.14 | 95 | 24 |  |  |  |  |  |  |  |  | 
O=C(NCC(NS(=O)(=O)c1ccccc1)C(=O)O)c1ccc(N2CCC(NC3=NCCCN3)CC2)cc1 (stereo in doubt) [formula (V), (2S)-Benzenesulfonylamino-3-[4-{4-(1,4,5,6-tetrahydropyrimidin-2-ylamino)piperidin-1-yl}-benzoylamino]propionic Acid] |  |  | 800 |  |  |  |  | no influence | 1.2 | 63 | 190 | 16.1 | 39.0±1.7 | 13000 |  |  |  |  | 35.5 | 30.0±1.6
O=C(NC[C@@H](NS(=O)(=O)c1ccccc1)C(=O)O)c1ccc(N2CCCC(NC3=NCCCN3)C2)cc1 (stereo partly drawn) [formula (IX), (2S)-Benzenesulfonylamino-3-[4-{(3S)-(1,4,5,6-tetrahydropyrimidin-2-ylamino)piperidin-1-yl}benzoylamino]propionic Acid] | 59 | 11 | 96 |  |  |  |  |  | 0.53 | 56 | 28 |  |  |  |  |  |  |  |  | 
